Experimental data from PubChem BioAssay AID1963840 (Molecular Pharmacology Branch, DTP, NCI, 2024).

Test system: 695427-040-R-J1-PDC complex spheroid viability
Assay: Anticancer human tumor 695427-040-R-J1-PDC patient-derived colon adenocarcinoma cell line growth inhibition [POLQ]
Settings: for IC50: curve of first compound; for viability, T/C: stronger effect = lower value
Procedure, shortened: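 PDC + HUVEC + MSC complex spheroids; POLQ inhibitors ± partner drugs; top conc. at/near clinical Cmax, else 10 microM (SN-38 1 microM), half-log dilutions; 37 degrees C, 5% CO2.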

[1] = second compound 0.0316 µM, first compound 0.0316 µM
[2] = second compound 0.0316 µM, first compound 0.1 µM
[3] = second compound 0.0316 µM, first compound 0.316 µM
[4] = second compound 0.0316 µM, first compound 1 µM
[5] = second compound 0.0316 µM, first compound 3.16 µM
[6] = second compound 0.0316 µM, first compound 10 µM
[7] = second compound 0.1 µM, first compound 0.0316 µM
[8] = second compound 0.1 µM, first compound 0.1 µM
[9] = second compound 0.1 µM, first compound 0.316 µM
[10] = second compound 0.1 µM, first compound 1 µM
[11] = second compound 0.1 µM, first compound 3.16 µM
[12] = second compound 0.1 µM, first compound 10 µM
[13] = second compound 0.316 µM, first compound 0.0316 µM
[14] = second compound 0.316 µM, first compound 0.1 µM
[15] = second compound 0.316 µM, first compound 0.316 µM
[16] = second compound 0.316 µM, first compound 1 µM
[17] = second compound 0.316 µM, first compound 3.16 µM
[18] = second compound 0.316 µM, first compound 10 µM
[19] = second compound 1 µM, first compound 0.0316 µM
[20] = second compound 1 µM, first compound 0.1 µM
[21] = second compound 1 µM, first compound 0.316 µM
[22] = second compound 1 µM, first compound 1 µM
[23] = second compound 1 µM, first compound 3.16 µM
[24] = second compound 1 µM, first compound 10 µM
[25] = second compound 3.16 µM, first compound 0.0316 µM
[26] = second compound 3.16 µM, first compound 0.1 µM
[27] = second compound 3.16 µM, first compound 0.316 µM
[28] = second compound 3.16 µM, first compound 1 µM
[29] = second compound 3.16 µM, first compound 3.16 µM
[30] = second compound 3.16 µM, first compound 10 µM
[31] = second compound 10 µM, first compound 0.0316 µM
[32] = second compound 10 µM, first compound 0.1 µM
[33] = second compound 10 µM, first compound 0.316 µM
[34] = second compound 10 µM, first compound 1 µM
[35] = second compound 10 µM, first compound 3.16 µM
[36] = second compound 10 µM, first compound 10 µM
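Also: spheroids exposed to compounds for seven days.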
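For viability, T/C in this document: 100% = DMSO vehicle control viability.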

C=CC(=O)N1CCN(c2nc(=O)n(-c3c(C)ccnc3C(C)C)c3nc(-c4c(O)cccc4F)c(F)cc23)C(C)C1 (stereo unspecified) + Nc1ccc(C#CCN(C(=O)Cc2ncc(C(F)(F)F)cc2C(F)(F)F)c2ccc(F)cc2)nn1
IC50 (second compound 0.0316 µM): > 10 µM
IC50 (second compound 0.1 µM): > 10 µM
IC50 (second compound 0.316 µM): > 10 µM
IC50 (second compound 1 µM): > 10 µM
IC50 (second compound 3.16 µM): > 10 µM
IC50 (second compound 10 µM): > 10 µM
viability, T/C [1]: 108%
viability, T/C [2]: 104%
viability, T/C [3]: 110%
viability, T/C [4]: 111%
viability, T/C [5]: 110%
viability, T/C [6]: 104%
viability, T/C [7]: 108%
viability, T/C [8]: 110%
viability, T/C [9]: 107%
viability, T/C [10]: 92.2%
viability, T/C [11]: 104%
viability, T/C [12]: 113%
viability, T/C [13]: 116%
viability, T/C [14]: 107%
viability, T/C [15]: 102%
viability, T/C [16]: 105%
viability, T/C [17]: 120%
viability, T/C [18]: 95.3%
viability, T/C [19]: 102%
viability, T/C [20]: 95.2%
viability, T/C [21]: 97.9%
viability, T/C [22]: 101%
viability, T/C [23]: 107%
viability, T/C [24]: 96.9%
viability, T/C [25]: 105%
viability, T/C [26]: 101%
viability, T/C [27]: 104%
viability, T/C [28]: 97.3%
viability, T/C [29]: 107%
viability, T/C [30]: 98.3%
viability, T/C [31]: 97.2%
viability, T/C [32]: 84.4%
viability, T/C [33]: 102%
viability, T/C [34]: 96.3%
viability, T/C [35]: 121%
viability, T/C [36]: 97.6%

CC(C)n1c(=O)n(C)c2cnc3cc(F)c(-c4ccc(OCCCN5CCCCC5)nc4)cc3c21 + Nc1ccc(C#CCN(C(=O)Cc2ncc(C(F)(F)F)cc2C(F)(F)F)c2ccc(F)cc2)nn1
IC50 (second compound 0.0316 µM): > 10 µM
IC50 (second compound 0.1 µM): > 10 µM
IC50 (second compound 0.316 µM): > 10 µM
IC50 (second compound 1 µM): > 10 µM
IC50 (second compound 3.16 µM): > 10 µM
IC50 (second compound 10 µM): > 10 µM
viability, T/C [1]: 103%
viability, T/C [2]: 105%
viability, T/C [3]: 112%
viability, T/C [4]: 110%
viability, T/C [5]: 100%
viability, T/C [6]: 91.4%
viability, T/C [7]: 106%
viability, T/C [8]: 109%
viability, T/C [9]: 115%
viability, T/C [10]: 107%
viability, T/C [11]: 108%
viability, T/C [12]: 81.9%
viability, T/C [13]: 114%
viability, T/C [14]: 112%
viability, T/C [15]: 103%
viability, T/C [16]: 110%
viability, T/C [17]: 106%
viability, T/C [18]: 91.8%
viability, T/C [19]: 102%
viability, T/C [20]: 98.9%
viability, T/C [21]: 116%
viability, T/C [22]: 106%
viability, T/C [23]: 115%
viability, T/C [24]: 82.4%
viability, T/C [25]: 107%
viability, T/C [26]: 100%
viability, T/C [27]: 105%
viability, T/C [28]: 104%
viability, T/C [29]: 96%
viability, T/C [30]: 79.6%
viability, T/C [31]: 99.7%
viability, T/C [32]: 90.1%
viability, T/C [33]: 101%
viability, T/C [34]: 108%
viability, T/C [35]: 95.4%
viability, T/C [36]: 88%

CC1COCCN1c1cc(-c2ccnn2C)c2ccnc(-c3ccn[nH]3)c2n1 (stereo unspecified) + Nc1ccc(C#CCN(C(=O)Cc2ncc(C(F)(F)F)cc2C(F)(F)F)c2ccc(F)cc2)nn1
IC50 (second compound 0.0316 µM): > 10 µM
IC50 (second compound 0.1 µM): > 10 µM
IC50 (second compound 0.316 µM): > 10 µM
IC50 (second compound 1 µM): > 10 µM
IC50 (second compound 3.16 µM): > 10 µM
IC50 (second compound 10 µM): > 10 µM
viability, T/C [1]: 92.9%
viability, T/C [2]: 91.8%
viability, T/C [3]: 72.9%
viability, T/C [4]: 66.8%
viability, T/C [5]: 61.6%
viability, T/C [6]: 56.3%
viability, T/C [7]: 117%
viability, T/C [8]: 89.1%
viability, T/C [9]: 74.3%
viability, T/C [10]: 66.3%
viability, T/C [11]: 61.7%
viability, T/C [12]: 56.2%
viability, T/C [13]: 105%
viability, T/C [14]: 92.7%
viability, T/C [15]: 71%
viability, T/C [16]: 62.5%
viability, T/C [17]: 65%
viability, T/C [18]: 56.9%
viability, T/C [19]: 108%
viability, T/C [20]: 83.5%
viability, T/C [21]: 73.6%
viability, T/C [22]: 65.6%
viability, T/C [23]: 59.7%
viability, T/C [24]: 51.4%
viability, T/C [25]: 102%
viability, T/C [26]: 84.3%
viability, T/C [27]: 70.3%
viability, T/C [28]: 61.1%
viability, T/C [29]: 61.8%
viability, T/C [30]: 52.2%
viability, T/C [31]: 92%
viability, T/C [32]: 80.3%
viability, T/C [33]: 64.2%
viability, T/C [34]: 57.8%
viability, T/C [35]: 58.5%
viability, T/C [36]: 58%
